Measurements published in US4578395A, “Certain aralkylaminoalkyl esters of 1,4 dihydropyridines as antihypertensive” (Teijin Limited, priority 1983, dated 1986).
Structures can show the parent of a compound that is named as a salt.

Tests used:
anesthetized rats = experiment: Hypotensive activity by intravenous administration in anesthetized rats (Example 23); format: in vivo, Male Wistar rats; details: for ED20: Rattus norvegicus, iv, anesthetized Wistar rats about 250 g, read-out: ED20 (dose decreasing mean blood pressure by 20%); for Duration T1/2 (half-life of hypotensive action): i.v., dose 10
Procedure: (§1) Male Wistar rats weighing about 250 g were used. They were anesthetized with urethane (500 mg/kg) and α-chloralose (100 mg/kg) intraperitoneal injection.
(§2) The test compound was dissolved in a small quantity of ethanol and the solution, which was then diluted with physiological saline to have a final concentration of ethanol kept at 5% or lower, was intravenously injected through a catheter inserted into the femoral vein.
(§3) The blood pressure was recorded with the pressure transducer via the catheter inserted into the common carotid artery of the rats.
(§4) Hypotensive activity of the test compound was indicated by the dose (ED20 μ/kg) required for decreasing the mean blood pressure by 20% as compared with the mean blood pressure before the administration.
(§5) To determine the duration of the hypotensive action of the test compound, half-life of hypotensive action T^1 /2) was measured.

[1] = test system: SHR (Spontaneously Hypertensive Rats); experiment: Antihypertensive activity in SHR; format: in vivo, Male SHR (Spontaneously Hypertensive Rats); details: no anesthesia
Procedure: Male SHR (14 to 16 weeks old) fasted for more than 16 hours were used. […] When one hour or more passed after the rats woke up out of the ether, they were administered the test compound orally. The blood pressure was measured with the pressure transducer via the catheter inserted into the femoral artery.
The test compound was dissolved in a small quantity of ethanol and diluted with water to be adjusted for administration.
Changes in the mean blood pressure were obtained from the equation mentioned below. The Basic and Clinical Study, vol. 14, p. 4495 (1980) is a useful literature to be referred to for making this kind of experiment. [formula]

rats periphery = experiment: Vasodilative activity in rats periphery (constant volume blood perfusion); format: in vivo, Male SD strain rats
Procedure: Male SD strain rats, weighing 350 g to 450 g, were used. They were anesthetized with sodium pentobarbital 60 mg/kg i.p. […] The solution of the test compound was infused into the perfusion blood on the peripheral side with a perfusion pump, and changes in perfusion pressure were measured. The activity of the test compound was determined as the ratio of the relative activity of the test compound against papaverine obtained from the dose-response curves.

conscious rats = experiment: Antihypertensive activity by oral administration in conscious rats; format: in vivo, Male Wistar rats; details: 10 mg/kg oral
Procedure: When one hour or more passed after the rats were aroused, they were administered the test compound orally.
The blood pressure in the femoral artery was recorder and changes in the mean blood pressure were obtained from the following equation. [formula]

anesthetized rat = experiment: Hypotensive activity by intravenous administration in anesthetized rat (Example 27); format: in vivo, Male Wistar rats; details: for ED20: Rattus norvegicus, iv, anesthetized Wistar rats about 300 g, read-out: ED20 (dose decreasing mean blood pressure by 20%); for Duration T1/2: i.v.
Procedure: as §1, §2, §3, §4, §5
Male Wistar rats weighing about 300 g were used. The measurement of hypotensive activity was conducted according to the same method as Example 23.

[2] = Light stability in methanol solution; format: physicochemical
Procedure: 1 mg of compound (156) hydrochloride was dissolved in 100 ml of methanol. The solution was placed in a transparent glass test tube, and after the test tube was tightly stoppered, it was allowed to stand by the window of the laboratory. Part of the solution was taken at regular intervals and subjected to high performance liquid chromatograph to determined the remaining quantity of compound (156) hydrochloride contained in the solution. The same experiment was conducted with nicardipine hydrochloride as the control.

platelet aggregation = experiment: In vitro inhibitory activity of platelet aggregation; format: cell-based, male Hartley guinea pigs; details: Cavia porcellus, Platelet; Conc. 100 μM, AA 75 μM
Procedure: The in vitro platelet aggregation inhibiting activities of the compounds of the invention were examined by using guinea pigs. Blood was withdrawn by cardiac puncture from male Hartley guinea pigs weighing […]. A mixture of a 3.8% trisodium citrate solution and the blood in a ratio of 1:9 was centrifuged at a speed of 800 rpm for 10 minutes. The upper layer was separated as platelet-rich plasma (PRP). The lower layer was further centrifuged at a separated as platelet-poor plasma (PPP). The number of platelets was adjusted to 5×10^5 /μl to 6×10^5 /μl by filuting the PRP with PPP. 25 microliters of the test compounds prepared as shown below was added in an amount of 25 microliters of PRP after the adjustment, and the mixture was pre-incubated at 37° C. for 2 minutes, and then 75 μM (final) of AA was added. By using an aggregometer (37° C., 1,100 rpm), changes in transmission were recorded.
The test compound was dissolved in ethanol to a concentration of 10 mg/ml. When its activity was measured, it was used after being diluted with phosphate buffer (pH 7.4). Furthermore, after dilution with the buffer, the test compound was left to stand at 0° C. for 4 hours, and the activity of the test compound was similarly measured.
The rate of inhibition of platelet aggregation was determined from the following equation. [formula]

[3] = test system: peripheral blood vessels (femoral artery); experiment: Action on peripheral blood vessels (femoral blood flow) in anesthetized dog; format: in vivo, male beagle dog; details: 3 μg/kg i.v.
Procedure: (§6) A male beagle dog weighing about 10 kg was anesthetized with sodium pentobarbital (35 mg/kg i.v.). The test compound was dissolved in a small quantity of ethanol, diluted with an isotonic sodium chloride solution, and was injected into the right femoral vein.
The carotic blood flow (CBF) and the femoral blood flow (FBF) were measured with the electromagnetic blood flowmeter (MFV-1200 made by Japan Photoelectric Co., Ltd.) via probe for measuring the blood flow volume set in the right common carotid artery and the left femoral artery of the male beagle dog respectively.

mean blood pressure = experiment: Action on mean blood pressure in anesthetized dog; format: in vivo, male beagle dog; details: 10 μg/kg i.v.
Procedure: as §6
The mean blood pressure (MBP) was measured with the pressure transwer via the cannula inserted into the right femoral artery of the male beagle dog. The changes in the blood pressure after the administration of the test compound are shown in percentages in Table 5.

Compound: COC(=O)C1=C(C)NC(C)=C(C(=O)OCC(C)(C)CN(C)Cc2ccccc2)C1c1cccc([N+](=O)[O-])c1 (stereo not drawn) [(302) hydrochloride, 3-(N-Benzyl-N-methylamino)-2,2-dimethylpropyl methyl 2,6-dimethyl-4-(3-nitrophenyl)-1,4-dihydropyridine-3,5-dicarboxylate]
- ED20 (anesthetized rats): 0.0091 mg/kg
- Duration T1/2 (half-life of hypotensive action) (anesthetized rats): > 30 min

Compound: COC(=O)C1=C(C)NC(C)=C(C(=O)OCCN(C)Cc2ccccc2)C1c1cccc(Cl)c1F (stereo not drawn) [(106) hydrochloride, 2-(N-Benzyl-N-methylamino)ethyl methyl 2,6-dimethyl-4-(3-chloro-2-fluorophenyl)-1,4-dihydropyridine-3,5-dicarboxylate]
- Changes in MBP ([1]; 10 mg/kg oral, 30 min.): -56 ± 6 mmHg
- Changes in MBP ([1]; 10 mg/kg oral, 60 min.): -53 ± 11 mmHg
- Changes in MBP ([1]; 10 mg/kg oral, 90 min.): -46 ± 10 mmHg
- Changes in MBP ([1]; 10 mg/kg oral, 2 hr.): -47 ± 11 mmHg
- Changes in MBP ([1]; 10 mg/kg oral, 3 hr.): -39 ± 10 mmHg
- Changes in MBP ([1]; 10 mg/kg oral, 5 hr.): -37 mmHg
- Changes in MBP ([1]; 10 mg/kg oral, 7 hr.): -31 ± 7 mmHg

Compound: COC(=O)C1=C(C)NC(C)=C(C(=O)OCCN(C)Cc2ccccc2)C1c1cccc([N+](=O)[O-])c1F (stereo not drawn) [(104) hydrochloride, 2-(N-Benzyl-N-methylamino)ethyl methyl 2,6-dimethyl-4-(2-fluoro-3-nitrophenyl)-1,4-dihydropyridine-3,5-dicarboxylate]
- relative vasodilative activity against papaverine (rats periphery; dosage 0.1 μg/kg): 30 times
- relative vasodilative activity against papaverine (rats periphery; dosage 1 μg/kg): 50 times

Compound: COC(=O)C1=C(C)NC(C)=C(C(=O)OCC(C)(C)CN(C)Cc2c(Cl)cccc2Cl)C1c1cccc(Cl)c1F (stereo not drawn) [(202) hydrochloride, 3-(N-2,6-Dichlorobenzyl-N-methylamino)-2,2-dimethylpropyl methyl 2,6-dimethyl-4-(3-chloro-2-fluorophenyl)-1,4-dihydropyridine-3,5-dicarboxylate]
- Changes in mean blood pressure (conscious rats; after 30 min): -39 mmHg
- Changes in mean blood pressure (conscious rats; after 60 min): -40 mmHg
- Changes in mean blood pressure (conscious rats; after 90 min): -38 mmHg
- Changes in mean blood pressure (conscious rats; after 2 hr): -33 mmHg
- Changes in mean blood pressure (conscious rats; after 3 hr): -33 mmHg
- Changes in mean blood pressure (conscious rats; after 5 hr): -24 mmHg
- Changes in mean blood pressure (conscious rats; after 7 hr): -23 mmHg

Compound: COC(=O)C1=C(C)NC(C)=C(C(=O)OCC(C)(C)CN(C)Cc2ccccc2)C1c1cccc(Cl)c1F (stereo not drawn) [(156) hydrochloride, 3-(N-Benzyl-N-methylamino)-2,2-dimethylpropyl methyl 2,6-dimethyl-4-(3-chloro-2-fluorophenyl)-1,4-dihydropyridine-3,5-dicarboxylate]
- ED20 (anesthetized rat): 0.0245 mg/kg
- Duration T1/2 (anesthetized rat; dose 30): 8.5 min
- ED20 (anesthetized rats): 0.0149 mg/kg
- Duration T1/2 (half-life of hypotensive action) (anesthetized rats): 20 min
- light stability compared with nicardipine hydrochloride [2]: better light stability than nicardipine hydrochloride
- remaining at 2 h ([2]; light, 2 hr., read-out: Remaining percentage): 100%
- remaining at 4 h ([2]; light, 4 hr., read-out: Remaining percentage): 99%
- remaining at 6 h ([2]; light, 6 hr., read-out: Remaining percentage): 100%
- Changes in MBP ([1]; 3 mg/kg oral, 30 min.): -41 ± 8 mmHg
- Changes in MBP ([1]; 3 mg/kg oral, 60 min.): -39 ± 7 mmHg
- Changes in MBP ([1]; 3 mg/kg oral, 90 min.): -35 ± 5 mmHg
- Changes in MBP ([1]; 3 mg/kg oral, 2 hr.): -28 ± 6 mmHg
- Changes in MBP ([1]; 3 mg/kg oral, 3 hr.): -28 ± 6 mmHg
- Changes in MBP ([1]; 3 mg/kg oral, 5 hr.): -18 mmHg
- Changes in MBP ([1]; 3 mg/kg oral, 7 hr.): -20 ± 4 mmHg
- inhibition at 100 µM (platelet aggregation): -1.9 ± 2.5%
- Changes in FBF ([3]; 0.5 min.): 0 ± 0%
- Changes in FBF ([3]; 1 min.): -1 ± 3%
- Changes in FBF ([3]; 2 min.): +5 ± 5%
- Changes in FBF ([3]; 5 min.): +19 ± 5%
- Changes in FBF ([3]; 10 min.): +20 ± 10%

Compound: COC(=O)C1=C(C)NC(C)=C(C(=O)OCC(C)(C)CN(C)C)C1c1cccc([N+](=O)[O-])c1Cl (stereo not drawn) [reference compound]
- ED20 (anesthetized rat): 0.288 mg/kg
- Duration T1/2 (anesthetized rat; dose 300): 3.5 min

Compound: COC(=O)C1=C(C)NC(C)=C(C(=O)OCC(C)(C)CN(C)Cc2ccccc2)C1c1cccc([N+](=O)[O-])c1F (stereo not drawn) [(130) hydrochloride, 3-(N-Benzyl-N-methylamino)-2,2-dimethylpropyl methyl 2,6-dimethyl-4-(2-fluoro-3-nitrophenyl)-1,4-dihydropyridine-3,5-dicarboxylate]
- ED20 (anesthetized rat): 0.0147 mg/kg
- Duration T1/2 (anesthetized rat; dose 10): 15 min
- ED20 (anesthetized rats): 0.016 mg/kg
- Duration T1/2 (half-life of hypotensive action) (anesthetized rats): > 30 min
- Changes in MBP (mean blood pressure; 0.5 min.): -7 ± 1%
- Changes in MBP (mean blood pressure; 1 min.): -11 ± 1%
- Changes in MBP (mean blood pressure; 2 min.): -14 ± 1%
- Changes in MBP (mean blood pressure; 5 min.): -16 ± 2%
- Changes in MBP (mean blood pressure; 10 min.): -19 ± 3%
- Changes in MBP (mean blood pressure; 15 min.): -20 ± 3%
- Changes in MBP ([1]; 3 mg/kg oral, 30 min.): -67 ± 13 mmHg
- Changes in MBP ([1]; 3 mg/kg oral, 60 min.): -62 ± 13 mmHg
- Changes in MBP ([1]; 3 mg/kg oral, 90 min.): -60 ± 14 mmHg
- Changes in MBP ([1]; 3 mg/kg oral, 2 hr.): -54 ± 11 mmHg
- Changes in MBP ([1]; 3 mg/kg oral, 3 hr.): -48 ± 13 mmHg
- Changes in MBP ([1]; 3 mg/kg oral, 5 hr.): -40 mmHg
- Changes in MBP ([1]; 3 mg/kg oral, 7 hr.): -29 ± 8 mmHg

Compound: COC(=O)C1=C(C)NC(C)=C(C(=O)OCC(C)(C)CN(C)C)C1c1cccc(Cl)c1F (stereo not drawn) [reference compound]
- ED20 (anesthetized rat): 0.0807 mg/kg
- Duration T1/2 (anesthetized rat; dose 100): 4.6 min
